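Dose response: 5 concentrations. Exposure: 48 h. Format: 96-well plates. Endpoint: linear interpolation; highest concentration if not reached. At the GI50, growth is halved.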 Calls of active or inactive are those of the source. No stated cut-off is given here; in the data, active = GI50 up to about 1.1 µM and inactive = higher.

Test systems include SF-539; HCT-15; SNB-19; OVCAR-5; UO-31; TK-10; NCI-H23; DLD-1; SR; A549; HOP-92; K562; NCI-H522; EKVX; SK-OV-3; DU-145; Hs-578T; MDA-MB-435; PC-3; MDA-N.
Holding throughout (test): growth of human tumour cells (NCI), 48 h

As for `COc1ccc(Nc2nc3ccccc3nc2-c2cccs2)cc1`, the GI50 was > 100 µM (inactive) in the assay on SF-539; greater than 100 µM in the assay with HCT-15; > 100 µM (inactive) in the assay on SNB-19; > 100 µM (inactive) with OVCAR-5; > 100 µM (inactive) with UO-31; > 100 µM (inactive) in the assay on TK-10. Besides, the GI50 in the assay on NCI-H23 is > 100 µM (inactive); in the assay on DLD-1, > 100 µM (inactive); in the assay with SR, 55 µM (inactive); in the assay with A549, 80.4 µM (inactive); in the assay on HOP-92, 51.5 µM (inactive); in the assay on K562, > 100 µM (inactive). Also, the GI50 in the assay on NCI-H522 was 59.4 µM (inactive); with EKVX it was > 100 µM (inactive); in the assay on SK-OV-3 it was 40.5 µM (inactive).
With `N/C(S)=N/N=C/c1ccc(O)cn1`, the GI50 in the assay with SF-539 is 2.26 µM (inactive); in the assay on DU-145 it was 2.96 µM (inactive); in the assay on HCT-15, 9.08 µM; in the assay on Hs-578T, 316 µM (inactive); in the assay on SNB-19, 12.9 µM (inactive); in the assay with OVCAR-5, 45 µM (inactive). The GI50 in the assay with UO-31 is 10.6 µM (inactive); in the assay with TK-10, 105 µM (inactive); in the assay with NCI-H23, 6.11 µM (inactive); with DLD-1, 21.4 µM (inactive); with MDA-MB-435 it was 10.5 µM (inactive); with SR it was 1.64 µM (inactive). Moreover, the GI50 with A549 is 47.6 µM (inactive); with HOP-92, 4.68 µM (inactive); in the assay on K562, 4.99 µM (inactive); in the assay on EKVX, 14.5 µM (inactive); with PC-3, 7.1 µM (inactive); in the assay with MDA-N, 8.45 µM (inactive).
Regarding `CCCCCCCCCC/C=C/C=O`, the GI50 in the assay with SF-539 is > 100 µM (inactive); with HCT-15 it was greater than 100 µM; in the assay on SNB-19 it was > 100 µM (inactive); in the assay with OVCAR-5, > 100 µM (inactive); with UO-31, > 100 µM (inactive); in the assay on TK-10 it was > 100 µM (inactive). Also, the GI50 in the assay on NCI-H23, in the assay with DLD-1, in the assay with SR, in the assay with A549, with HOP-92 and in the assay with K562 was > 100 µM (inactive) each time. The GI50 with NCI-H522, with EKVX and with SK-OV-3 was > 100 µM (inactive) throughout.

The values above are taken from ChEMBL document CHEMBL1201862, “PubChem BioAssay data set” (2004).
